Measurements reported in patent publication US20230312482A1, “SOS1 INHIBITORS” (Mirati Therapeutics, Inc., priority 2020, published 2023).

Legend:
[1] = biological target: T1, recombinant human SOS1 polypeptide (amino acids 560-1049) (Homo sapiens, UniProt Q07889); experiment: HTRF displacement assay, binding to SOS1; conditions: HTRF displacement of Cy5 labelled tracer, 1-hour incubation, Morrison equation
T1 construct: corresponding to amino acids 560-1049, expressed in E. Coli; His (N); TEV site (N); made in house; host or cells: E. coli
T1 sequence (Q07889 560-1049): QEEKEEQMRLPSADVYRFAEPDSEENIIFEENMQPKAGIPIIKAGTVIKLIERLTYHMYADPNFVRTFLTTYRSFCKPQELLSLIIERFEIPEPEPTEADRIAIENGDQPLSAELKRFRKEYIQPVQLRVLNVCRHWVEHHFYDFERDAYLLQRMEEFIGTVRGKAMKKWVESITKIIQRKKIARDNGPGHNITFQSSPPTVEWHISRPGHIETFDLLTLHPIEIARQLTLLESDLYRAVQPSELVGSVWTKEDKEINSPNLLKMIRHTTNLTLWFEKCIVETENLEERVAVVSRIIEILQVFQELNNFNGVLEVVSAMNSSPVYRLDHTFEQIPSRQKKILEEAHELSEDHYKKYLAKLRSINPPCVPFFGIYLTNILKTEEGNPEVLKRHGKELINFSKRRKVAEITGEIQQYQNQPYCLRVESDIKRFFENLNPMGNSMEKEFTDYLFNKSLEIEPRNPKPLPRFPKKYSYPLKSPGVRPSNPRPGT
Description: The ability of a compound of Formula (I) to bind to SOS1 was measured using a HTRF displacement assay. […] The HTRF ratio was calculated using the formula: [emission ⅟emission 2]*10000.
Background signals were calculated from well with a 10 µM inhibitor, known to inhibit 100% at that concentration. The background subtracted signals were converted to % binding relative to DMSO controls. Data were analyzed using XLFIT software (IDBS) using a Morrison equation for competitive binding and Ki’s were generated for compound of Formula (I).

[2] = system: pERK in MKN1 cells or H358; experiment: pERK inhibition in MKN1 or H358 cells (In-Cell Western); assay type: cell-based; conditions: GAPDH normalized, 1 hour with compound, MKN1 or H358 cells (not specified which)
Description: This Example illustrates that exemplary compounds of the present invention prevent KRas-mediated GTP nucleotide exchange mediated by SOS1 to inhibit KRas activity thereby inhibiting the generation of the downstream effector pERK.
(§1) MKN1 cells (15,000/w) or H358 (30,000/w) were seeded in a black clear flat bottom 96-well cell culture plate (Corning, #3904) and incubated at 37° C. overnight. Assay day 1, cells were dosed with compounds of Formula (I) with a […] starting concentration and serially diluted 3x for a total of 9 concentrations. The cells were incubated for 1 hour with the compounds solubilized in DMSO at 37° C. Cells were immediately fixed by adding 50 µL of 4% formaldehyde to all wells in a fume hood and the plates were incubated for 20 minutes at room temperature. The formaldehyde was discarded from the plates and 150 µL of ice-cold methanol was added to permeabilize the cells for 10 minutes at -20° C. The methanol was discarded from each of the plates and any liquid remaining in the plate by tapping the plate against paper towels. Cells were then blocked with 150 µL of Odyssey blocking buffer (LI-COR Biosciences #927-50010) using 0.05% Tween for 1 hour at room temperature on a shaker. The blocking buffer was discarded and 50 µL of primary antibodies pERK (cell signaling Technology #9101L; Rabbit, 1:500) and GapDH (Millipore #MAB34; Mouse, 1:5000) diluted in Odyssey blocking buffer was added. The plates were incubated overnight at 4° C. on a shaker.
On Assay day 2, the primary antibody solution was removed. Each plate was washed 3x times with 150 µL of 1x PBST (PBS + 0.1 % Tween 20) and incubated with 50 µL of secondary antibodies: Anti-Rabbit (LI-COR Biosciences #926-32211) and Anti-Mouse (LI-COR Biosciences #68070) at 1:800 dilution in Odyssey blocking buffer with Tween at room temperature on a shaker for 2 hours (protected from light). The secondary antibody solution as removed and each plate was washed with PBST 3x times. Any liquid remaining was discarded and the plate was imaged using the Licor Odyssey machine according to the manufacturer’s instruction, using a set focus length at 3 mm and both 800 nm and 700 nm filters. The GAPDH normalized scan values for each well were divided by the average of vehicle wells to get the % of pERK inhibition. The IC50 values were then calculated with the Graph pad Prism software.

pERK in NCI-H1435 cells = experiment: pERK inhibition in NF-1 mutant cell line NCI-H1435; assay type: cell-based; conditions: NCI-H1435 cells (NF-1 mutation), 1 hour with compound
From the text: This Example illustrates that exemplary compounds of the present invention prevent increased KRas-mediated GTP nucleotide exchange mediated by SOS1 in NF-1 mutant cell lines to inhibit KRas activity thereby inhibiting the generation of the downstream effector pERK.
as §1, with “A cell line harboring activating mutation in NF-1 gene, NCI-H1435 (ATCC CRL-5870) and a cell line harboring activating mutation in NF-2 gene, NCI-H2052 (ATCC CRL-5915) were employed in these studies. NCI-H1435 and NCI-2052” for “MKN1”, “(15,000/w)” for “(15,000/w) or H358 (30,000/w)”
On Assay day 2, the primary antibody solution was removed. […] The IC50 values were then calculated with the Graph pad Prism software.

pERK in NCI-H2052 cells = experiment: pERK inhibition in NF-2 mutant cell line NCI-H2052; assay type: cell-based; conditions: Homo sapiens, NCI-H2052 cells (NF-2 mutation), 1 hour with compound

Row | SMILES | Ki [1] [nM] | IC50 [2] [nM] | IC50 (pERK in NCI-H1435 cells) [nM] | IC50 (pERK in NCI-H2052 cells) [nM]
1 | Cc1c([C@@H](C)Nc2n[nH]c(=O)c3ccc(N4CCOCC4)cc23)cccc1C(F)(F)F [Example 1-1] | 60 | 1320 | 1090 | > 10000
2 | Cc1c([C@@H](C)Nc2nn(C)c(=O)c3ccc(N4CCNCC4)cc23)cccc1C(F)(F)F [Example 1-5] |  | 881 |  | 
3 | CNCc1ccccc1-c1csc([C@@H](C)Nc2nn(C)c(=O)c3ccc(N4CCOCC4)cc23)c1 [Example 1-3, (R)methyl-4-((1-(4-(2-((methylamino)methyl)phenyl)thiophenyl)ethyl)amino)-6-morpholinophthalazin-1 (2H)-one] | 14 | 265 | 522 | 997
4 | Cc1c([C@@H](C)Nc2nn(C)c(=O)c3ccc(N4CCOCC4)cc23)cccc1C(F)(F)F [Example 1-4] | 3000 |  |  | 
5 | CNCc1ccccc1-c1csc([C@@H](C)Nc2n[nH]c(=O)c3ccc(N4CCOCC4)cc23)c1 [Example 1-2] | 10 | 202 | 311 | 752
6 | Cc1c([C@@H](C)Nc2n[nH]c(=O)c3ccc(N4CCNCC4)cc23)cccc1C(F)(F)F [Example 1-6] |  | 114 |  | 
